Laboratory results from patent US20260263533A1, “COMBINATION OF BIFIDOBACTERIUM AND FUCOSYLATED HMO FOR USE IN INCREASING NMN OR NAD+” (DSM IP Assets B.V., priority 2022, published 2026).

Tests used:
B. bifidum R0071 [1] = test: Metabolomics of culture supernatants (NMN, NAD+); format: cell-based, Bifidobacterium bifidum
Description: (§1) Initial overnight cultures in de Man, Rogosa, and Sharpe (MRS) medium with glucose (Merck, cat #110661) were prepared in an anaerobic chamber with mixed gas (90% N2, 5% CO2, and 5% H2) at 37° C. From the overnight cultures strains were subcultured 1:100 or 1:10 (if slow growing) into fresh MRS (with glucose) and grown to mid-log (without shaking) in the anerobic chamber at 37° C. For the carbohydrate utilization analysis, a BioLector (automated culturomics equipment, Biosciences) was used. Cells were inoculated 1:100 into MRS (without glucose, Liofilchem Cat #610144) in a 48 well MTP plate (Biosciences) containing 1% of one of the following carbon sources: glucose, lactose, a HMO mixture (containing 2′FL, 2′FL: DFL (range of 6:1-8:1), 3FL, 3′SL, 6′SL, LNnT and LNT in equal portions), HMO mixture+lactose or sterile DI water (as no sugar control) in a final volume of 2 mL and grown in the BioLector at 37° C. for up to 72 hours, shaking at 400 rpm under anaerobic conditions and continuous nitrogen gas flow. If a strain grew on the HMO mixture the experiment was repeated with the individual HMOs of the mixture as carbon source. Change in biomass, pH, and dissolved oxygen was monitored every 20 minutes by the BioLector. A minimum of two replicates were completed for each carbon source. Samples were transferred to a 96 deep-well plate, spun down at 4000 rpm for 10 min at 4° C., and supernatants removed for analysis or stored at −80° C. until further analysis. Sample supernatants were analyzed using metabolomics by Metabolon (NC, USA).

B. bifidum 32403 = test: BioLector growth on carbon sources; format: cell-based, Bifidobacterium bifidum; conditions: for Ability to grow on carbon source: 1% carbon source in MRS without glucose, 37° C., up to 72 hours, anaerobic
Description: as §1, with “analysis.” for “analysis. Sample supernatants were analyzed using metabolomics by Metabolon (NC, USA).”

B. bifidum HA-132 = test: BioLector growth on carbon sources; format: cell-based, Bifidobacterium bifidum; conditions: 1% carbon source in MRS without glucose, 37° C., up to 72 hours, anaerobic
Description: as §1, with “analysis.” for “analysis. Sample supernatants were analyzed using metabolomics by Metabolon (NC, USA).”

B. infantis R0033 [2] = test: BioLector growth on carbon sources; format: cell-based, Bifidobacterium infantis; design: key: +++: fast exponential growth reaching a plateau before 45 hours; ++: slower exponential growth reaching a plateau after 45 hours; +: slow almost linear growth, does not reach plateau during the time of fermentation; −: No significant growth for 50 h or more; conditions: 1% carbon source in MRS without glucose, 37° C., up to 72 hours, anaerobic
Description: as §1, with “analysis.” for “analysis. Sample supernatants were analyzed using metabolomics by Metabolon (NC, USA).”

B. infantis HA-116 [3] = test: BioLector growth on carbon sources; format: cell-based, Bifidobacterium infantis; design: key: +++: fast exponential growth reaching a plateau before 45 hours; ++: slower exponential growth reaching a plateau after 45 hours; +: slow almost linear growth, does not reach plateau during the time of fermentation; −: No significant growth for 50 h or more; conditions: 1% carbon source in MRS without glucose, 37° C., up to 72 hours, anaerobic
Description: as §1, with “analysis.” for “analysis. Sample supernatants were analyzed using metabolomics by Metabolon (NC, USA).”

B. bifidum R0071 [4] = test: BioLector growth on carbon sources; format: cell-based, Bifidobacterium bifidum; design: key: +++: fast exponential growth reaching a plateau before 45 hours; ++: slower exponential growth reaching a plateau after 45 hours; +: slow almost linear growth, does not reach plateau during the time of fermentation; −: No significant growth for 50 h or more; conditions: 1% carbon source in MRS without glucose, 37° C., up to 72 hours, anaerobic
Description: as §1, with “analysis.” for “analysis. Sample supernatants were analyzed using metabolomics by Metabolon (NC, USA).”

B. infantis R0033 [5] = test: Metabolomics of culture supernatants (NMN, NAD+); format: cell-based, Bifidobacterium infantis
Description: as §1, with “Samples were transferred to a 96 deep-well plate, spun down at 4000 rpm for 10 min at 4° C., and supernatants removed for analysis or stored at −80° C. until further analysis.” left out

B. infantis HA-116 [6] = test: Metabolomics of culture supernatants (NMN, NAD+); format: cell-based, Bifidobacterium infantis
Description: as §1, with “Samples were transferred to a 96 deep-well plate, spun down at 4000 rpm for 10 min at 4° C., and supernatants removed for analysis or stored at −80° C. until further analysis.” left out

L. plantarum TIFN101 [7] = test: Metabolomics of culture supernatants (NMN, NAD+); format: cell-based, Lactobacillus plantarum
Description: as §1, with “Samples were transferred to a 96 deep-well plate, spun down at 4000 rpm for 10 min at 4° C., and supernatants removed for analysis or stored at −80° C. until further analysis.” left out

L. reuteri DSM 12246 [8] = test: Metabolomics of culture supernatants (NMN, NAD+); format: cell-based, Lactobacillus reuteri
Description: as §1, with “Samples were transferred to a 96 deep-well plate, spun down at 4000 rpm for 10 min at 4° C., and supernatants removed for analysis or stored at −80° C. until further analysis.” left out

L. reuteri DSM 12246 [9] = test: BioLector growth on carbon sources; format: cell-based, Lactobacillus reuteri; conditions: FIG. 3B
Description: as §1, with “Samples were transferred to a 96 deep-well plate, spun down at 4000 rpm for 10 min at 4° C., and supernatants removed for analysis or stored at −80° C. until further analysis. Sample supernatants were analyzed using metabolomics by Metabolon (NC, USA).” left out

L. plantarum TIFN101 [10] = test: BioLector growth on carbon sources; format: cell-based, Lactobacillus plantarum; conditions: FIG. 3C
Description: as §1, with “Samples were transferred to a 96 deep-well plate, spun down at 4000 rpm for 10 min at 4° C., and supernatants removed for analysis or stored at −80° C. until further analysis. Sample supernatants were analyzed using metabolomics by Metabolon (NC, USA).” left out

Compound | NMN production (in words) (B. bifidum R0071 [1]) | Ability to grow on carbon source (B. bifidum 32403) | Ability to grow on carbon source (B. bifidum HA-132) | Ability to grow on carbon source (B. infantis R0033 [2]) | Ability to grow on carbon source (B. infantis HA-116 [3]) | Ability to grow on carbon source (B. bifidum R0071 [4]) | NAD+ production compared with growth on lactose (in words) (B. infantis R0033 [5]) | NAD+ production compared with growth on lactose (in words) (B. infantis HA-116 [6]) | Growth on carbon source (in words) (B. bifidum 32403; BioLector, FIG. 3A, FIG. 6) | NAD+ production (in words) (L. plantarum TIFN101 [7]) | NAD+ production (in words) (B. bifidum R0071 [1]) | NAD+ production (in words) (L. reuteri DSM 12246 [8]) | Growth on carbon source (in words) (L. reuteri DSM 12246 [9]) | Growth on carbon source (in words) (L. plantarum TIFN101 [10])
CC(=O)N[C@H]1[C@H](O[C@H]2[C@@H](O)[C@@H](CO)O[C@@H](O[C@H]3[C@H](O)[C@@H](O)C(O)O[C@@H]3CO)[C@@H]2O)O[C@H](CO)[C@@H](O[C@@H]2O[C@H](CO)[C@H](O)[C@H](O)[C@H]2O)[C@@H]1O (mixture of isomers) [LNnT, lacto-N-neotetraose] | low amounts | +++ (fast exponential growth reaching a plateau before 45 hours) | +++ (fast exponential growth reaching a plateau before 45 hours) | − | + | ++ (slower exponential growth reaching a plateau after 45 hours) |  |  |  |  |  |  |  | 
CC(=O)N[C@H]1[C@H]([C@H](O)[C@H](O)CO)O[C@@](O[C@H]2[C@@H](O)[C@@H](CO)O[C@@H](O[C@H]3[C@H](O)[C@@H](O)C(O)O[C@@H]3CO)[C@@H]2O)(C(=O)O)C[C@@H]1O (some centres unmarked) [3′SL, 3′-sialyllactose] |  | +++ (fast exponential growth reaching a plateau before 45 hours) | +++ (fast exponential growth reaching a plateau before 45 hours) | − | − | − |  |  |  |  |  |  |  | 
CC(=O)N[C@H]1[C@H]([C@H](O)[C@H](O)CO)O[C@@](OC[C@H]2O[C@@H](O[C@H]3[C@H](O)[C@@H](O)[C@H](O)O[C@@H]3CO)[C@H](O)[C@@H](O)[C@H]2O)(C(=O)O)C[C@@H]1O [6′SL, 6′-sialyllactose] |  | +++ (fast exponential growth reaching a plateau before 45 hours) | +++ (fast exponential growth reaching a plateau before 45 hours) | − | − | − |  |  |  |  |  |  |  | 
C[C@@H]1O[C@@H](O[C@H]2[C@H](O[C@H]3[C@H](O[C@@H]4O[C@@H](C)[C@@H](O)[C@@H](O)[C@@H]4O)[C@@H](O)C(O)O[C@@H]3CO)O[C@H](CO)[C@H](O)[C@@H]2O)[C@@H](O)[C@H](O)[C@@H]1O (some centres unmarked) [DFL, difucosyllactose] |  |  |  |  |  |  | a bit more | a bit more |  |  |  |  |  | 
C[C@H](O)[C@@H](O)[C@@H](O)[C@H](O)C=O [L-fucose] |  |  |  |  |  |  |  |  | not able to grow |  |  |  |  | 
CC(=O)N[C@H]1[C@H](O[C@H]2[C@@H](O)[C@@H](CO)O[C@@H](O[C@H]3[C@H](O)[C@@H](O)C(O)O[C@@H]3CO)[C@@H]2O)O[C@H](CO)[C@@H](O)[C@@H]1O[C@@H]1O[C@H](CO)[C@H](O)[C@H](O)[C@H]1O (some centres unmarked) [LNT, lacto-N-tetraose] | low amounts | +++ (fast exponential growth reaching a plateau before 45 hours) | +++ (fast exponential growth reaching a plateau before 45 hours) | − | + | +++ (fast exponential growth reaching a plateau before 45 hours) |  |  |  |  |  |  |  | 
OC[C@H]1O[C@@H](O[C@H]2[C@H](O)[C@@H](O)C(O)O[C@@H]2CO)[C@H](O)[C@@H](O)[C@H]1O (some centres unmarked) [Lactose, lactose] |  | +++ (fast exponential growth reaching a plateau before 45 hours) | ++ (slower exponential growth reaching a plateau after 45 hours) | +++ (fast exponential growth reaching a plateau before 45 hours) | +++ (fast exponential growth reaching a plateau before 45 hours) | +++ (fast exponential growth reaching a plateau before 45 hours) |  |  |  | able to produce NAD+ | able to produce NAD+ | able to produce NAD+ | capable of growing | capable of growing
